Experimental data from patent publication US8809627B2, “Plant isoflavone and isoflavanone O-methyltransferase genes” (The Samuel Roberts Noble Foundation, Inc., priority 2006, dated 2014).
Where no end group is shown, it is not given here.

Experiments:
[1] = Specific activity of the purified IOMTs with the most converted substrate; format: biochemical; settings: 50 μM S-adenosyl methionine, 100 μM acceptor substrate
Procedure: (§1) For determination of specific activities, reactions (100 μl) were performed in 0.1 M potassium phosphate, pH 7.4, 10% (w/v) sucrose, 14 mM β-mercaptoethanol with 0.2-μg protein, 50 μM S-adenosyl-L-methionine (0.025 μCi ^14C-SAM per reaction), and 100 μM substrate. Reactions were incubated at 30° C. for 15-25 min and stopped by addition of 4 μl of 1N HCl. Products were extracted into 500 μl of ethyl acetate and 400 μl was used for liquid scintillation counting.

[2] = Quantification of methylated products in reactions with dihydrodaidzein; format: biochemical
Procedure: (§2) Reactions (200 μl) were performed in 0.1 M potassium phosphate, pH 7.4, 10% (w/v) sucrose, 14 mM β-mercaptoethanol with 10 μM protein, 0.5 mM S-adenosyl-L-methionine, and 80 μM phenolic substrates. All substrates were purchased from Indofine (Hillsborough, N.J.) except 6,7-dihydroxy-4′-methoxyisoflavone, dihydrodaidzein, and vestitol, which were purchased from Apin (Oxfordshire, UK). […] OMT assays were incubated at 30° C. for 2 h and extracted with ethyl acetate. Ethyl acetate extracts were dried under N2 and the resultant material was resuspended in 50-100 μl of methanol. Samples were analyzed on an Agilent 1100 HPLC, equipped with a quaternary pump (model #G1311A), a degasser (model #G1322A), an autosampler (model #G1313A), and a diode array detector (model #G1315A). Samples of 20 μl were applied to an ODS2 reverse-phase column (5 μm particle size, 4.6×250 mm) and eluted in 1% (v/v) phosphoric acid with an increasing gradient of acetonitrile (0-5 min, 25%; 5-35 min, 25-50%; 35-39 min, 50-100%) at a flow rate of 1 ml/min. To resolve the 4′-O-methylated and 7-O-methylated products of genistein, samples were applied to a Phenomenex SYNERGI Polar-RP 80 Å column (4 μm particle size, 4.6×250 mm) and eluted in water with an increasing gradient of acetonitrile (0-5 min, 20%; 5-17 min, 20-38%; 17-33 min, 38%; 33-45 min, 38-56%; 45-46 min, 56-100%) at a flow rate of 1 ml/min. Chiral chromatography was performed as described (Liu et al., 2005).
An HP 1100 series II LC system (Hewlett-Packard, Palo Alto, Calif.) with a photodiode array detector was coupled to a Bruker Esquire ion-trap mass spectrometer (ITMS) equipped with an electrospray ionization source. A reverse phase, C18, 5 μm, 4.6×250 mm column (J. T. Baker, Phillipsburg, N.J.) was used for separations. The mobile phase consisted of 0.1% (v/v) acetic acid using linear gradients of 5-90% acetonitrile (v/v) in 70 min. The flow rate was 0.8 ml/min, and the temperature of the column was kept at 28° C. Both positive- and negative-ion mass spectra were acquired. Positive-ion ESI was performed using an ion source voltage of 4.0 KV and a capillary offset voltage of 86.0 V. Nebulization was aided with a coaxial nitrogen sheath gas provided at a pressure of 60 psi. Desolvation was aided using a counter current nitrogen flow set at a pressure of 12 psi and a capillary temperature of 300° C. Mass spectra were recorded over the range 50-2200 m/z. The ITMS was operated under an ion current control of approximately 10,000 with a maximum acquire time of 100 ms. Tandem mass spectra were obtained in manual mode for targeted masses using an isolation width of 2.0, fragmentation amplitude of 2.2 and threshold set at 6,000.
To determine the regio-specificity of methylation, reaction products were subjected to HPLC separation and identified by comparison to available standards, or subjected to tandem MS analysis (FIGS. 10-13; Table 4)

MtIOMT5 = molecular target: T1, MtIOMT5 (Medicago truncatula, UniProt Q29U70); experiment: OMT assays with purified recombinant MtIOMT5 (relative activity; HPLC/MS of products); format: biochemical; settings: for Position of methylation / reaction products, MtIOMT5: HPLC against standards, tandem MS
T1 construct: His-tag (N); made in house; host or cells: E. coli BL21(DE3)
T1 sequence (Q29U70 1-364): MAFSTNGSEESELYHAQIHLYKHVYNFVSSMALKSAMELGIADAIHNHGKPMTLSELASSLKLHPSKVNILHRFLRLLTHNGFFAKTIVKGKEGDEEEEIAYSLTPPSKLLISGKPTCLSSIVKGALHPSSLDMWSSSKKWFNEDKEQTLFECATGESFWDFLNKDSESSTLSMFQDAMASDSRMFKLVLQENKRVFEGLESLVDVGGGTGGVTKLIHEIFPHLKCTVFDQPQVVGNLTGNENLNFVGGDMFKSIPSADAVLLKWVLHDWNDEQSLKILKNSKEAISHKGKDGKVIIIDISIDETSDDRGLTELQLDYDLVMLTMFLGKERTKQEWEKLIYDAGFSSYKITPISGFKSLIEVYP
Text: (§3) Cloning of MtIOMT5 (corresponding to TC 100926, TIGR MtGI v.8) was as described previously (Liu et al., 2005). To obtain a full-length cDNA for MtIOMT2, specific primers designed based upon the M. truncatula genomic sequence were used to amplify the MtIOMT2 coding sequence from M. truncatula root cDNA. The amplified product was cloned into the pGEM®-T easy vector (Promega, Madison Wis.) and sequenced to confirm its identity. MtIOMTs were cloned into the pET28a vector (EMD Biosciences, Inc., San Diego, Calif.) using PCR-based amplification with primers designed to introduce EcoRI and XhoI restriction sites; BamHI and XhoI sites were used for cloning MtIOMT6 due to the presence of an internal EcoRI site in this particular cDNA. Because the EST for MtIOMT8 was missing a start codon, the primer designed to clone MtIOMT8 into pET28a contained an additional 2-nucleotide insertion to generate an ATG start site. All MtIOMTs were expressed as translational fusions to an N-terminal His-tag. Expression of MtIOMTs in E. coli BL21(DE3) and purification by Ni^2+-NTA chromatography were as described (Zubieta et al., 2001). Proteins were dialyzed against 20 mM Tris pH 8.0, 100 mM NaCl, 10% (v/v) glycerol, and 14 mM β-mercaptoethanol. Protein concentration was determined by Bradford assay using BSA as a standard (Bradford, 1976).
as §2, §1
An HP 1100 series II LC system (Hewlett-Packard, Palo Alto, Calif.) with a photodiode array detector was coupled to a Bruker Esquire ion-trap mass spectrometer (ITMS) equipped with an electrospray ionization source. A reverse phase, C18, 5 μm, 4.6×250 mm column (J. T. Baker, Phillipsburg, N.J.) was used for separations. The mobile phase consisted of 0.1% (v/v) acetic acid using linear gradients of 5-90% acetonitrile (v/v) in 70 min. The flow rate was 0.8 ml/min, and the temperature of the column was kept at 28° C. Both positive- and negative-ion mass spectra were acquired. […]

MtIOMT7 = experiment: OMT assays with purified recombinant MtIOMT7 (relative activity; HPLC/MS of products); format: biochemical, Medicago truncatula; settings: 50 μM S-adenosyl methionine, 100 μM acceptor substrate; most converted substrate = 100%
Text: as §3, §2, §1
An HP 1100 series II LC system (Hewlett-Packard, Palo Alto, Calif.) with a photodiode array detector was coupled to a Bruker Esquire ion-trap mass spectrometer (ITMS) equipped with an electrospray ionization source. A reverse phase, C18, 5 μm, 4.6×250 mm column (J. T. Baker, Phillipsburg, N.J.) was used for separations. The mobile phase consisted of 0.1% (v/v) acetic acid using linear gradients of 5-90% acetonitrile (v/v) in 70 min. The flow rate was 0.8 ml/min, and the temperature of the column was kept at 28° C. Both positive- and negative-ion mass spectra were acquired.

MsI7OMT = molecular target: T2, MsI7OMT (Medicago sativa, UniProt O24529); settings: reported by He et al., 1998; cited from earlier work
T2 sequence (O24529 1-352): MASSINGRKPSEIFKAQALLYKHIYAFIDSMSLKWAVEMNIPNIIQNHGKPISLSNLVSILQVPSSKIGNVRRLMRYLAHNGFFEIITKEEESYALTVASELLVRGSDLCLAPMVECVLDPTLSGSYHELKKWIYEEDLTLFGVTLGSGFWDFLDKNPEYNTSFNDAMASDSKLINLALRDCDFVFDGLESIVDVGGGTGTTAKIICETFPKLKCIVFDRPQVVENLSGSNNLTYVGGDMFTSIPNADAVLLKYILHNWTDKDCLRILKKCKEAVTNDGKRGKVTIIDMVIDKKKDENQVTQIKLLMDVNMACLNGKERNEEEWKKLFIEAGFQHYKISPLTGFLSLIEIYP

## MtIOMT2: M. truncatula isoflavonoid O-methyltransferase, His-tagged, expressed in E. coli; GenBank DQ419910 (NFVGGDMFKSVPSADAVLLKWVLHDWNDELCLKILKNCKE; His tag; listed as Medicago truncatula)
[1]
  Specific activity at 100%: 930.2 pkat/mg
[2]
  % 4′-Methylated: 33%
  % 7-Methylated: 66%
  % Dimethylated: <1%
  Ratio 4′/7-methylated: 0.5

## O=C1c2ccc(O)cc2OC(O)C1c1ccc(O)cc1 (stereo not drawn) [2,7,4′-trihydroxyisoflavanone]
MtIOMT5; 50 μM S-adenosyl methionine, 100 μM acceptor substrate, most converted substrate = 100%
  Relative activity, MtIOMT5: 100%
MtIOMT5
  Position of methylation / reaction products, MtIOMT5: exclusively methylated on the 4′-position
MtIOMT7
  Relative activity, MtIOMT7: 24.8%

## COc1ccc(-c2coc3cc(O)cc(O)c3c2=O)cc1 [biochanin A]
MsI7OMT
  Activity of MsI7OMT with 4′-methoxyisoflavones (in words): little activity

## MtIOMT1: M. truncatula isoflavonoid O-methyltransferase, His-tagged, expressed in E. coli; GenBank AY942159 (TYVGGDMFTSIPNADAVLLKYILHNWTDKDCTRILKKCKE; cysteine pairing not given here; also: His-tagged; listed as Medicago truncatula)
[1]
  Specific activity at 100%: 3646.7 pkat/mg
[2]
  % 4′-Methylated: 0%
  % 7-Methylated: >99%
  % Dimethylated: <1%
  Ratio 4′/7-methylated: 0

## MtIOMT3: M. truncatula isoflavonoid O-methyltransferase, His-tagged, expressed in E. coli; GenBank DQ419911 (TYVGGDMFISVPKADAVLLKAVLHDWTDKDCIKILKKCKE; cysteine pairing not given here; also: His-tagged; listed as Medicago truncatula)
[1]
  Specific activity at 100%: 7.4 pkat/mg
[2]
  % 4′-Methylated: 92%
  % 7-Methylated: 8%
  % Dimethylated: 0%
  Ratio 4′/7-methylated: 11.4

## O=C1C[C@@H](c2ccc(O)cc2)Oc2cc(O)ccc21 [Liquiritigenin]
MtIOMT5
  Position of methylation / reaction products, MtIOMT5: methylated on the 4′-positions
MtIOMT5; chiral HPLC of unreacted substrate
  Enantiomer methylated, MtIOMT5: preferentially methylates the (2R)-enantiomer
